Test results published in US4206125A, “5-[2-[(2,3-Dihydro-1,4-benzodioxan-2-ylmethyl)amino]-1-hydrox yethyl]-2-hydroxybenzoic acid derivatives” (Richardson-Merrell Inc., priority 1979, dated 1980).

Tests used:
[1] = test system: systolic blood pressure of spontaneously hypertensive rats (SHR); assay: Antihypertensive activity in spontaneously hypertensive rats (SHR); type: in vivo, rat; conditions: SHR Okomoto-Aoki strain; oral dose of 50 mg/kg; one hour following administration
Protocol: Antihypertensive activity is determined in spontaneously hypertensive rats (SHR) of the Okomoto-Aoki strain. Systolic blood pressure of the SHR is measured from the caudal artery by means of an indirect method utilizing a photocell transducer/trail cuff occluder system. Time response relationships are determined for each compound following an oral dose of 50 mg/kg. Data are expressed as mm of Hg decrease from control values. Statistical significance is determined using a 2 tailed "t" test comparing drug treatment response values to those obtained from concurrent vehicle treated animals. Under these conditions the compound 5-[2-[(2,3-dihydro-1,4-benzodioxan-2-ylmethyl)amino]-1-hydroxyethyl]-2-hydroxybenzamide lowered blood pressure by 24 mm of Hg one hour following administration of the drug substance.

β-Adrenergic receptor = target: T1, β-Adrenergic receptor (Cavia porcellus, UniProt H0W3H1); assay: β-Adrenergic receptor blocking activity, isolated guinea pig atria, isoproterenol as agonist; type: cell-based; conditions: increase in rate, read-out: pA2 value (β-adrenergic receptor blocking activity) (converted)
T1 construct: isolated guinea pig atria preparation; from tissue; host or cells: isolated guinea pig atria
T1 sequence (H0W3H1 1-470): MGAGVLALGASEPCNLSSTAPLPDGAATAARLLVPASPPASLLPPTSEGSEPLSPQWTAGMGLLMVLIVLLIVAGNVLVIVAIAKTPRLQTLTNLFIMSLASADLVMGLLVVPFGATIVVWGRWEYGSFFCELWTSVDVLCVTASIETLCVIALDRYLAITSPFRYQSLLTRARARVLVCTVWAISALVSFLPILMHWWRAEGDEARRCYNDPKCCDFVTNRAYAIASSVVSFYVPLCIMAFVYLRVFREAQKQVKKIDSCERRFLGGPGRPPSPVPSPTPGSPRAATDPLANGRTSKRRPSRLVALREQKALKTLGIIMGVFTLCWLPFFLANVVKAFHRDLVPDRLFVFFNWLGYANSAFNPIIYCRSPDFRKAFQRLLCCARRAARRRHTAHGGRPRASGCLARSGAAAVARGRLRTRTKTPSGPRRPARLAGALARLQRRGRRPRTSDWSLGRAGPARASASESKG
Protocol: β-Adrenergic receptor blocking activity is determined in vitro by performing cumulative dose-response experiments in the isolated guinea pig atria preparation using isoproterenol as the agonist. The response (increase in rate) of the guinea pig atria preparation in the presence of logarithmically increasing concentrations of the compounds being tested are expressed as percent of the maximal attainable response. Relative antagonistic potency is expressed as a pA2 value, as defined above.

α-Adrenergic receptor = α-Adrenergic receptor blocking activity, isolated rabbit aortic strip, norepinephrine as agonist; type: cell-based; conditions: contractile response
Protocol: α-Adrenergic receptor blocking activity is determined in vitro by performing cumulative dose-response experiments in the isolated rabbit aortic strip preparation using norepinephrine as the agonist. The contractile response of the rabbit strip preparation in the presence of logarithmically increasing concentrations of the compounds being tested are expressed as percent of the maximal attainable response. Relative antagonistic potency is expressed as a pA2 value.

## NC(=O)c1cc(C(O)CNCC2COc3ccccc3O2)ccc1O (stereo not drawn) [5-[2-[(2,3-dihydro-1,4-benzodioxan-2-ylmethyl)amino]-1-hydroxyethyl]-2-hydroxybenzamide]
[1]
  systolic blood pressure decrease from control values: 24 mm of Hg
β-Adrenergic receptor
  Kb: 1450 nM
α-Adrenergic receptor
  pA2 value (α-adrenergic receptor blocking activity): 6.20
